Literature values in patent US10369266B2, “Multipart fluid system and a system for citrate anticoagulation in an extracorporeal blood circuit” (Gambro Lundia AB, priority 2013, dated 2019).

System: endothelial inflammation and dysfunction
Details: citrate 0.8 mM; hypoglycemic state; in vitro

O=C(O)CC(O)(CC(=O)O)C(=O)O [citrate]
effect on endothelial inflammation and dysfunction: reduces endothelial inflammation and dysfunction
